Consider ten compounds from ChEMBL document CHEMBL1201862, “PubChem BioAssay data set” (2004).

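The compound was tested at five concentrations on cells cultured in 96-well plates, with a 48-hour exposure period. GI50 marks 50% less growth.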 The source made the active and inactive calls. No stated cut-off is given here; in the data, active = GI50 up to about 1.1 µM and inactive = higher.

Some test systems named below: CCRF-CEM; NCI-H23; UACC-62; OVCAR-8; SNB-19; COLO 205; SF-539; NCI-H522; NCI-H226; OVCAR-3; SF-268; U-251; UO-31; HT-29; NCI/ADR-RES; HOP-92; HOP-62; OVCAR-5; K562; UACC-257.
Assay in all cases: growth of human tumour cells (NCI), 48 h

Consider `O=c1ccn([C@@H]2C=C(CO)[C@@H](O)[C@H]2O)c(=O)[nH]1`, for which the GI50 in the assay with CCRF-CEM, with NCI-H23, in the assay with UACC-62, with OVCAR-8, with SNB-19 and in the assay on COLO 205 was > 625 µM (inactive) each time. For the same compound, the GI50 in the assay on SF-539, with NCI-H522, in the assay with NCI-H226, in the assay on OVCAR-3, with SF-268 and in the assay with U-251 was > 625 µM (inactive) each time. For the same compound, the GI50 in the assay on UO-31, in the assay on HT-29, in the assay with NCI/ADR-RES, in the assay with HOP-92 and with HOP-62 was > 625 µM (inactive) each time.
Turning to `O=c1cnn(C/C=C/CBr)c(=O)[nH]1`, the GI50 in the assay with CCRF-CEM was 15.2 µM (inactive); in the assay with OVCAR-8, 23.1 µM (inactive); with SNB-19, 24.7 µM (inactive); in the assay with OVCAR-5, 17.4 µM (inactive); in the assay on COLO 205 it was 18.8 µM (inactive); in the assay on K562 it was 21.4 µM (inactive). The GI50 in the assay on SF-539 was 16.1 µM (inactive); in the assay on NCI-H522, 8.17 µM (inactive); in the assay on NCI-H226 it was 17 µM (inactive); with OVCAR-3 it was 25.7 µM (inactive); in the assay with SF-268 it was 17.1 µM (inactive); in the assay on U-251, 15 µM (inactive). For the same compound, the GI50 is 14.1 µM (inactive) in the assay on UO-31; 13.8 µM (inactive) in the assay on HT-29; 23.3 µM (inactive) in the assay on NCI/ADR-RES; 13.9 µM (inactive) in the assay with UACC-257; 14.6 µM (inactive) in the assay on HOP-92; 17.9 µM (inactive) in the assay with HOP-62.
As to `COc1cccc2c1C(=O)c1c(O)c3c(c(O)c1C2=O)C[C@@](O)(C(=O)CN1CCOCC1)C[C@@H]3OC1CC(N)C(O)C(C)O1` (stereo partly drawn), the GI50 in the assay with NCI-H23 was 5.3 µM (inactive); in the assay on UACC-62, 3.58 µM (inactive); in the assay on OVCAR-8 it was 4.47 µM (inactive); with SNB-19 it was 2.62 µM (inactive); with OVCAR-5, 12.4 µM (inactive); in the assay with COLO 205 it was 5.94 µM (inactive). The GI50 in the assay with K562 was 2.9 µM (inactive); with SF-539 it was 4.09 µM (inactive); in the assay with NCI-H522, 2.82 µM (inactive); in the assay on NCI-H226, 1.85 µM (inactive); in the assay with OVCAR-3 it was 0.000912 µM (active); in the assay on SF-268, 4.47 µM (inactive). The GI50 was 2.12 µM (inactive) with U-251; 19 µM (inactive) in the assay with UO-31; 0.000764 µM (active) in the assay on HT-29; 5.52 µM (inactive) with NCI/ADR-RES; 0.000769 µM (active) in the assay on UACC-257; 2.48 µM (inactive) with HOP-62.
Turning to `CCCCN(C)/N=N/c1[nH]cnc1C(N)=O`, the GI50 was 52.4 µM (inactive) in the assay on CCRF-CEM; > 100 µM (inactive) with NCI-H23; 57.1 µM (inactive) with UACC-62; 78.2 µM (inactive) with OVCAR-8; > 100 µM (inactive) with SNB-19; > 85.1 µM (inactive) in the assay with OVCAR-5. Moreover, the GI50 in the assay on COLO 205 was > 100 µM (inactive); in the assay on K562, > 80.7 µM (inactive); with SF-539 it was > 100 µM (inactive); in the assay on NCI-H522 it was > 100 µM (inactive); in the assay with NCI-H226 it was > 100 µM (inactive); with OVCAR-3 it was 99.5 µM (inactive). The GI50 with SF-268 is > 100 µM (inactive); with U-251, > 100 µM (inactive); in the assay on UO-31, > 100 µM (inactive); in the assay on HT-29, > 100 µM (inactive); with NCI/ADR-RES it was > 100 µM (inactive); with UACC-257 it was > 73.5 µM (inactive). In the assay on HOP-92, the GI50 was 47.6 µM (inactive).
In the case of `COc1ccccc1OCC(COC(=O)Nc1ccccc1)OC(=O)Nc1ccccc1` (stereo not drawn), the GI50 is > 100 µM (inactive) in the assay on CCRF-CEM; 73.1 µM (inactive) in the assay with NCI-H23; 32.6 µM (inactive) in the assay with UACC-62; 37.4 µM (inactive) in the assay on OVCAR-8; 31.5 µM (inactive) with SNB-19; > 100 µM (inactive) in the assay with OVCAR-5. The GI50 was 94.2 µM (inactive) in the assay with COLO 205; > 100 µM (inactive) in the assay with K562; 17.2 µM (inactive) in the assay on SF-539; 49.4 µM (inactive) in the assay on NCI-H522; 36.2 µM (inactive) in the assay with NCI-H226; > 100 µM (inactive) with OVCAR-3. Also, the GI50 was 57.5 µM (inactive) in the assay with SF-268; 41.4 µM (inactive) in the assay on U-251; 49.3 µM (inactive) with UO-31; 59.8 µM (inactive) with HT-29; > 100 µM (inactive) in the assay on UACC-257; 6.25 µM (inactive) in the assay with HOP-92. For the same compound, the GI50 with HOP-62 is 56.6 µM (inactive).
As for `CCOC(=O)c1ccc(N(CCOS(C)(=O)=O)CCOS(C)(=O)=O)cc1`, the GI50 with CCRF-CEM was 23.9 µM (inactive); with NCI-H23, 43.3 µM (inactive); in the assay on UACC-62, 27.8 µM (inactive); in the assay on OVCAR-8 it was 47 µM (inactive); in the assay on SNB-19, 90.6 µM (inactive); with OVCAR-5, 34.9 µM (inactive). Further, the GI50 in the assay with COLO 205 is 64.9 µM (inactive); with K562, 24.3 µM (inactive); in the assay with SF-539, 25.1 µM (inactive); with NCI-H522, 12.9 µM (inactive); in the assay with OVCAR-3, 36.6 µM (inactive); with SF-268 it was 26.1 µM (inactive). The GI50 was 35.9 µM (inactive) with U-251; 20.5 µM (inactive) with UO-31; 51.6 µM (inactive) with HT-29; 35.7 µM (inactive) with NCI/ADR-RES; > 100 µM (inactive) in the assay with UACC-257; 37.6 µM (inactive) in the assay on HOP-92.
Consider `c1ccc(-n2cnnc2-c2nsc3ccccc23)cc1`, for which the GI50 in the assay with CCRF-CEM, in the assay with NCI-H23, in the assay with UACC-62, with OVCAR-8, with SNB-19 and with OVCAR-5 was > 100 µM (inactive) throughout. Moreover, the GI50 in the assay with COLO 205 is > 100 µM (inactive); in the assay with K562, > 100 µM (inactive); in the assay with SF-539, > 100 µM (inactive); in the assay with OVCAR-3 it was 80.2 µM (inactive); in the assay with SF-268, > 100 µM (inactive); with U-251, > 100 µM (inactive). Also, the GI50 was > 100 µM (inactive) with UO-31; > 100 µM (inactive) with HT-29; > 100 µM (inactive) with UACC-257; 53.1 µM (inactive) in the assay on HOP-92; > 100 µM (inactive) with HOP-62.
Regarding `C=C1C(=O)[C@@]23CC[C@H]4[C@@](C)(CCC[C@@]4(C)C(=O)OC)[C@@H]2CC[C@]1(O)C3`, the GI50 in the assay on CCRF-CEM is 0.2 µM (active); in the assay on NCI-H23, 1.57 µM (inactive); with UACC-62, 1.6 µM (inactive); in the assay on OVCAR-8, 1.47 µM (inactive); in the assay on SNB-19 it was 13 µM (inactive); in the assay on OVCAR-5, 2.02 µM (inactive). Further, the GI50 in the assay with COLO 205 is 1.72 µM (inactive); in the assay with K562, 0.604 µM (active); in the assay with SF-539 it was 1.76 µM (inactive); with NCI-H522 it was 1.54 µM (inactive); in the assay on NCI-H226, 3.3 µM (inactive); with OVCAR-3 it was 1.84 µM (inactive). Moreover, the GI50 in the assay on SF-268 was 1.9 µM (inactive); in the assay on U-251 it was 3.38 µM (inactive); in the assay with UO-31, 2.32 µM (inactive); with HT-29, 1.27 µM (inactive); with NCI/ADR-RES, 1.37 µM (inactive); with UACC-257, 1.72 µM (inactive). In addition, the GI50 in the assay on HOP-92 was 1.78 µM (inactive); in the assay with HOP-62 it was 20.2 µM (inactive).
As to `C/C=C1\C[C@@H]2C(OC)Nc3cc(O)c(OC)cc3C(=O)N2C1` (stereo partly drawn), the GI50 in the assay with CCRF-CEM is < 0.01 µM (active); with UACC-62, < 0.01 µM (active); with OVCAR-8, < 0.01 µM (active); in the assay on SNB-19, 0.0074 µM (active); in the assay on OVCAR-5 it was < 0.01 µM (active); in the assay on COLO 205 it was 0.00692 µM (active). For the same compound, the GI50 with K562 was < 0.01 µM (active); with SF-539, < 0.01 µM (active); in the assay on NCI-H522, < 0.01 µM (active); in the assay on NCI-H226, 0.0223 µM (active); with OVCAR-3, < 0.01 µM (active); in the assay on SF-268, < 0.01 µM (active). In addition, the GI50 in the assay with U-251, in the assay on UO-31, in the assay with HT-29, with NCI/ADR-RES, in the assay with UACC-257 and in the assay with HOP-92 was < 0.01 µM (active) in each case. For the same compound, the GI50 with HOP-62 was < 0.01 µM (active).
`C[C@H]1O[C@@H](O[C@H]2[C@@H](O)C[C@H](O[C@H]3[C@@H](O)C[C@H](O[C@H]4CC[C@@]5(C)[C@H](CC[C@@H]6[C@@H]5CC[C@]5(C)[C@@H](C7=CC(=O)OC7)CC[C@]65O)C4)O[C@@H]3C)O[C@@H]2C)C[C@H](O)[C@@H]1O` [DIGITOXIN]: the GI50 with CCRF-CEM is < 0.0199 µM (active); in the assay with NCI-H23, 0.0185 µM (active); in the assay on UACC-62, 0.0579 µM (active); in the assay with SNB-19 it was 0.075 µM (active); in the assay on OVCAR-5, 0.0543 µM (active); with COLO 205 it was 0.0501 µM (active). In addition, the GI50 in the assay with K562 is < 0.0246 µM (active); with SF-539 it was < 0.0123 µM (active); with NCI-H522 it was < 0.01 µM (active); with NCI-H226, 0.0635 µM (active); in the assay on OVCAR-3, < 0.0172 µM (active); in the assay on SF-268 it was < 0.0241 µM (active). Further, the GI50 was 0.0414 µM (active) in the assay on UO-31; 0.0338 µM (active) with HT-29; 0.0283 µM (active) in the assay with NCI/ADR-RES; 0.0582 µM (active) in the assay on UACC-257; 0.0422 µM (active) in the assay with HOP-92; < 0.0199 µM (active) in the assay with HOP-62.
